Source: patent US20240082228A1, “SARS-COV-2 THERAPEUTICS” (priority 2021, published 2024)
Several values for one entry are separate records, joined by “and”; a condition that tells them apart may be missing. Equal entries are not always repeated. Where two headings read alike, the source gives them in different places.

What was measured:
SARS-CoV-2 = test: microbe, parasite or virus in culture; type: cell-based; settings: for % Infection (1 uM) / % Infection (5 uM): single replicate of triplicate; for Normalized Infection (1 uM) / log2FC Infection (1 uM) / Normalized Infection (5 uM) / log2FC Infection (5 uM) / activity at 1 µM / activity at 5 µM: single replicate, relative to negative control DMSO; for activity at 1 µM: Severe acute respiratory syndrome coronavirus 2, 1 uM, read-out: Normalized Infection (1 uM); for activity at 5 µM: Severe acute respiratory syndrome coronavirus 2, 5 uM, read-out: Normalized Infection (5 uM)
[1] = for Average Cell Number (1 uM) / Cell Number (1 uM) / Normalized Cell Number (1 uM): compound at 1 uM; for Average Cell Number (1 uM) / Average Cell Number (5 uM): average of normalized cell number, n=3, relative to DMSO; for Cell Number (1 uM) / Normalized Cell Number (1 uM) / Cell Number (5 uM) / Normalized Cell Number (5 uM): single replicate; for Cell Number (1 uM) / Cell Number (5 uM): raw cell count; for Normalized Cell Number (1 uM) / Normalized Cell Number (5 uM): relative to negative control DMSO; for Average Cell Number (5 uM) / Cell Number (5 uM) / Normalized Cell Number (5 uM): compound at 5 uM
[2] = 1 uM, average log2FC infection (n=3) relative to DMSO
[3] = 5 uM, average log2FC infection (n=3) relative to DMSO

| SMILES | Average Infection (1 uM) (SARS-CoV-2) | Average Infection (5 uM) (SARS-CoV-2) | HIT (2 Std, 1 uM) (SARS-CoV-2; 1 uM) | HIT (SARS-CoV-2; overall, 1 or 5 uM) | Average Infection (1 uM) (SARS-CoV-2; [2]) | Average Infection (5 uM) (SARS-CoV-2; [3]) | activity at 1 µM (SARS-CoV-2) [%] | activity at 5 µM (SARS-CoV-2) [%] | Toxic (1 uM) [1] | Toxic (5 uM) [1] | Average Cell Number (1 uM) [1] | Cell Number (1 uM) [1] | Normalized Cell Number (1 uM) [1] | Average Cell Number (5 uM) [1] | Cell Number (5 uM) [1] | Normalized Cell Number (5 uM) [1] | HIT (2 Stdv, 5 uM) (SARS-CoV-2; 5 uM) | also measured |
| --- | --- | --- | --- | --- | --- | --- | --- | --- | --- | --- | --- | --- | --- | --- | --- | --- | --- | --- |
| O=C(c1ccc(F)cc1)N1CCC[C@H](c2nc(-c3ccc(F)cc3)no2)C1 [ADX-47273, adx-47273] | −0.4315 | −0.3579 | HIT | Yes |  |  |  |  |  |  |  |  |  |  |  |  |  | % Infection (1 uM) (SARS-CoV-2; 1 uM): 21.77% and 18.58% and 18.27%; Normalized Infection (1 uM) (SARS-CoV-2; 1 uM): 0.8288 and 0.7074 and 0.6954; log2FC Infection (1 uM) (SARS-CoV-2; 1 uM): −0.271 and −0.4995 and −0.524; % Infection (5 uM) (SARS-CoV-2; 5 uM): 14.06% and 10.49% and 11.77%; Normalized Infection (5 uM) (SARS-CoV-2; 5 uM): 0.9128 and 0.681 and 0.7644; log2FC Infection (5 uM) (SARS-CoV-2; 5 uM): −0.1316 and −0.5544 and −0.3876 |
| CC1(C)S[C@@H]2[C@H](NC(=O)[C@H](N)c3ccccc3)C(=O)N2[C@H]1C(=O)O [Ampicillin, ampicillin] |  |  | HIT | Yes | −0.9564 | −0.0334 | 48.2 | 102 | 0 (non-toxic (Normalized Cell number>0.65) | 0 (non-toxic (Normalized Cell number>0.65) | 0.694 | 3959 and 4296 and 3945 | 0.6756 and 0.7331 and 0.6732 | 0.9658 | 5481 and 5912 and 5777 | 0.9249 and 0.9976 and 0.9748 |  |  |
| Nc1cc(C(F)(F)F)c(-c2nc(N3CCOCC3)nc(N3CCOCC3)n2)cn1 [Bimiralisib, bimiralisib] |  |  | HIT | Yes | −1.45 | −4.123 |  | 5.11 | 0 (non-toxic (Normalized Cell number>0.65) |  | 0.6927 | 3839 and 4405 and 3934 | 0.6551 and 0.7517 and 0.6713 | 0.4637 | 2795 and 2791 and 2658 | 0.4716 and 0.471 and 0.4485 | HIT |  |
| c1cc(OCCN2CCCCC2)cc(-c2n[nH]c3ccc(-c4nc[nH]n4)cc23)c1 [CC-401, cc-401] |  |  |  | Yes | −0.3224 | −0.828 | 86.2 | 58.4 | 0 (non-toxic (Normalized Cell number>0.65) | 0 (non-toxic (Normalized Cell number>0.65) | 0.8485 | 4691 and 5161 and 5065 | 0.8005 and 0.8807 and 0.8643 | 0.8935 | 4993 and 5513 and 5380 | 0.8425 and 0.9303 and 0.9078 | HIT |  |
| CS(=O)(=O)N1CCc2c(-c3cnc(N)nc3)nc(N3CCOCC3)nc21 [CH5132799, ch5132799] |  |  | HIT | Yes | −1.059 | −3.565 | 42.1 | 8.27 | 0 (non-toxic (Normalized Cell number>0.65) |  | 0.6597 | 4526 and 3593 and 3479 | 0.7724 and 0.6131 and 0.5937 | 0.5239 | 3141 and 3289 and 2884 | 0.53 and 0.555 and 0.4867 | HIT |  |
| CC(C)(C[C@H]1CN(S(=O)(=O)c2cccc(C(F)(F)F)c2)c2cc(-c3cc(F)cc(OC(F)F)c3)ccc2O1)C(=O)O [Cintirorgon, cintirorgon] |  |  | HIT | Yes | −0.8423 | −0.109 | 53.8 |  | 0 (non-toxic (Normalized Cell number>0.65) | 0 (non-toxic (Normalized Cell number>0.65) | 0.7476 | 4247 and 4539 and 4357 | 0.7247 and 0.7746 and 0.7435 | 0.9874 | 5894 and 6058 and 5603 | 0.9946 and 1.022 and 0.9455 |  |  |
| C[N+]12CCC(CC1)C(OC(=O)C(O)(c1ccccc1)c1ccccc1)C2 (centres unmarked) [Clidinium, clidinium] | −0.7651 | −0.1069 | HIT | Yes |  |  |  |  | 0 (non-toxic (Normalized Cell number>0.65) | 0 (non-toxic (Normalized Cell number>0.65) | 0.6841 | 3871 and 4256 and 3900 | 0.6606 and 0.7263 and 0.6655 | 0.9985 | 5211 and 6271 and 6270 | 0.8793 and 1.058 (2×) |  |  |
| CC(C)C[C@@H](NC(=O)[C@H](Cc1ccccc1)NC(=O)CNC(=O)[C@@H](C)NC(=O)[C@@H](N)Cc1ccc(O)cc1)C(=O)O [DADLE, L-Tyrosyl-D-alanylglycyl-L-phenylalanyl-D-leucine] | −0.6223 | −0.2501 | HIT | Yes |  |  |  |  | 0 (non-toxic (Normalized Cell number>0.65) | 0 (non-toxic (Normalized Cell number>0.65) | 0.7534 | 4511 and 4466 and 4268 | 0.7698 and 0.7621 and 0.7283 | 0.9869 | 5991 and 5664 and 5891 | 1.011 and 0.9558 and 0.9941 |  | % Infection (1 uM) (SARS-CoV-2; 1 uM): 17.22% and 16.52% and 17.46%; Normalized Infection (1 uM) (SARS-CoV-2; 1 uM): 0.6557 and 0.6291 and 0.6645; log2FC Infection (1 uM) (SARS-CoV-2; 1 uM): −0.6088 and −0.6686 and −0.5896; % Infection (5 uM) (SARS-CoV-2; 5 uM): 13.22% and 10.81% and 15.19%; Normalized Infection (5 uM) (SARS-CoV-2; 5 uM): 0.8586 and 0.7017 and 0.9867; log2FC Infection (5 uM) (SARS-CoV-2; 5 uM): −0.22 and −0.511 and −0.01933 |
| CCOC(=O)N1CCC(=C2c3ccc(Cl)cc3CCc3cccnc32)CC1 [Loratadine, loratadine] |  |  |  |  | −0.3263 | −1.089 | 81.8 | 54 |  |  |  |  |  |  |  |  |  | HIT (SARS-CoV-2): Yes; HIT (2 Stdv, 5 uM) (SARS-CoV-2): HIT |
| Cc1ccccc1-n1c(Cn2nc(-c3cccc(O)c3)c3c(N)ncnc32)nc2cccc(C)c2c1=O [PIK-294, pik-294] |  |  |  |  |  |  |  |  | 0 (non-toxic (Normalized Cell number>0.65) | 0 (non-toxic (Normalized Cell number>0.65) | 0.7115 | 4346 and 3954 and 4208 | 0.7416 and 0.6747 and 0.7181 | 0.9038 | 5244 and 5589 and 5236 | 0.8849 and 0.9431 and 0.8835 |  |  |
